Assay results published in US4177282A, “Hydantoin therapeutic agents” (priority 1978, dated 1979).
Structures can show the parent of a compound that is named as a salt.

Legend:
[1] = test system: sorbitol levels in diabetic rats; assay: control (inhibition) of formation of sorbitol levels in diabetic rats, oral; assay type: in vivo, rat; conditions: 0.25 mg./kg. to 5.0 mg./kg.
Text: As previously indicated, the dextrorotatory spiro-hydantoin compounds of this invention are all readily adapted to therapeutic use as aldose reductase inhibitors for the control of chronic diabetic complications, in view of their ability to reduce lens sorbitol levels in diabetic subjects to a statistically significant degree. […] The other compounds of this invention also cause similar results. Furthermore, the herein described compounds of this invention can be administered by either the oral or parenteral routes of administration, for the present purposes at hand, without causing any significant untoward pharmacological side reactions to occur in the subject to whom they are so administered. In general, these compounds are ordinarily administered in dosages ranging from about 0.05 mg. to about 5.0 mg. per kg. of body weight per day, although variations will necessarily occur depending upon the weight and condition of the subject being treated and the particular route of administration chosen.

[2] = test system: sorbitol levels in the sciatic nerve and lens of diabetic subjects; assay: lowering of sorbitol levels in the sciatic nerve and lens of diabetic subjects; assay type: in vivo, rat
Method: (§1) The activity of the compounds of the present invention, as agents for the control of chronic diabetic complications, is determined by their ability to successfully pass one or more of the following standard biological and/or pharmacological tests, viz., (1) measuring their ability to inhibit the enzyme activity of isolated aldose reductase; (2) measuring their ability to reduce or inhibit sorbitol accumulation in the sciatic nerve of acutely streptozotocinized (i.e., diabetic) rats; (3) measuring their ability to reverse alredy-elevated sorbitol levels in the sciatic nerve and lens of chronic streptozotocin-induced diabetic rats; (4) measuring their ability to prevent or inhibit galactitol formation in the lens of acutely galactosemic rats, and (5) measuring their ability to delay cataract formation and reduce the severity of lens opacities in chronic galactosemic rats.

[3] = test system: galactitol levels in the lens of galactosemic subjects; assay: lowering of galactitol levels in the lens of galactosemic subjects; assay type: in vivo, rat
Method: as §1

[4] = test system: sorbitol accumulation in the sciatic nerve of streptozotocinized (i.e., diabetic) rats; assay: inhibition of sorbitol accumulation in the sciatic nerve of streptozotocinized (diabetic) rats; assay type: in vivo, rat; conditions: measured at 27 hours, vs untreated
Method: as §1
The following spiro-hydantoin compounds of Preparations B and C and Examples I-II, respectively, were tested for their ability to reduce or inhibit sorbitol accumulation in the sciatic nerve of streptozotocinized (i.e., diabetic) rats by the procedure essentially described in U.S. Pat. No. 3,821,383. In the present study, the amount of sorbitol accumulation in the sciatic nerves was measured 27 hours after induction of diabetes. The compounds were administered orally at the dose levels indicated 4, 8 and 24 hours following the administration of streptozotocin. The results obtained in this manner are presented below in terms of percent inhibition (%) afforded by the test compound as compared to the case where no compound was administered (i.e., the untreated animal where sorbitol levels normally rise from approximately 50-100 mM/g. tissue to as high as 400 mM/g. tissue in the 27-hour test period): […]

[5] = molecular target: T1, partially purified aldose reductase enzyme obtained from calf lens (Bos taurus, UniProt P16116); assay: inhibition of isolated aldose reductase enzyme activity (procedure of S. Hayman et al., as modified by K. Sestanj et al.); assay type: biochemical; conditions: for inhibition at 100 µM / Percent Inhibition (%) of aldose reductase enzyme activity / inhibition at 10 µM / inhibition at 1 µM / inhibition at 0.1 µM: calf lens enzyme; for inhibition at 100 µM / inhibition at 10 µM / inhibition at 1 µM / inhibition at 0.1 µM: read-out: Percent Inhibition (%) of aldose reductase enzyme activity
T1 construct: partially purified aldose reductase enzyme obtained from calf lens; from tissue; host or cells: calf lens
Method: as §1
In every case, the substrate employed was partially purified aldose reductase enzyme obtained from calf lens.

[6] = solubility in water; assay type: physicochemical; conditions: amorphous powder, freeze-dried
[7] = 0.25 mg./kg. orally at 4, 8 and 24 hours after streptozotocin
[8] = 0.75 mg./kg. orally at 4, 8 and 24 hours after streptozotocin
[9] = 1.5 mg./kg. orally at 4, 8 and 24 hours after streptozotocin
[10] = 2.5 mg./kg. orally at 4, 8 and 24 hours after streptozotocin

**Q.** For `O=C1NC(=O)C2(CCOc3ccc(F)cc32)N1` (single isomer, unassigned) [d-Isomer of Ex. I, d-6-fluoro-spiro-[chroman-4,4'-imidazolidine]-2',5'-dione], which “control (i.e., inhibit) the formation of sorbitol levels (in words)” value [1] is on record?
**A.** to a significantly high degree

**Q.** What about the “lowering sorbitol levels in the sciatic nerve and lens (in words)” value [2] of the same molecule?
**A.** equally effective in lowering sorbitol levels in the sciatic nerve and lens of diabetic subjects

**Q.** And the “lowering galactitol levels in the lens (in words)” value [3]?
**A.** to a very significantly high degree

**Q.** What about the “Percent Inhibition (%) of sorbitol accumulation in the sciatic nerve” value (from here on “Percent Inhibition (%) … in the sciatic nerve”) [4, 7] of the same molecule?
**A.** 47%

**Q.** What about the “Percent Inhibition (%) … in the sciatic nerve” value [4, 8] of the same molecule?
**A.** 78%

**Q.** What about the “aldose reductase inhibitory activity (in words)” value [5] of the same molecule?
**A.** extremely potent

**Q.** And the inhibition at 100 µM ([5]; 10^-4 M)?
**A.** 100%

**Q.** What about the “Percent Inhibition (%) of aldose reductase enzyme activity” value ([5]; 10^-6 M) of the same molecule?
**A.** 98%

**Q.** What about the “Percent Inhibition (%) of aldose reductase enzyme activity” value ([5]; 10^-7 M) of the same molecule?
**A.** 39%

**Q.** What does the source list for `O=C1NC(=O)C2(CCOc3ccc(F)cc32)N1` (racemic) [dl-Cpd. of Prep. B, dl-6-fluoro-spiro-[chroman-4,4'-imidazolidine]-2',5'-dione]?
**A.** Percent Inhibition (%) of sorbitol accumulation in the sciatic nerve [4, 7]: 19%; Percent Inhibition (%) of sorbitol accumulation in the sciatic nerve [4, 8]: 45%; Percent Inhibition (%) of sorbitol accumulation in the sciatic nerve [4, 9]: 72%; inhibition at 100 µM ([5]; 10^-4 M): 85%; inhibition at 10 µM ([5]; 10^-5 M): 58%; inhibition at 1 µM ([5]; 10^-6 M): 52%; inhibition at 0.1 µM ([5]; 10^-7 M): 3%

**Q.** What does the source list for `O=C1NC(=O)C2(CCSc3ccc(F)cc32)N1` (racemic) [dl-Cpd. of Prep. C, dl-6'-fluoro-spiro-[imidazolidine-4,4'-thiochroman]-2,5-dione]?
**A.** Percent Inhibition (%) of sorbitol accumulation in the sciatic nerve [4, 8]: 13%; Percent Inhibition (%) of sorbitol accumulation in the sciatic nerve [4, 9]: 45%; Percent Inhibition (%) of sorbitol accumulation in the sciatic nerve [4, 10]: 74%; inhibition at 100 µM ([5]; 10^-4 M): 81%; inhibition at 10 µM ([5]; 10^-5 M): 77%; inhibition at 1 µM ([5]; 10^-6 M): 66%; inhibition at 0.1 µM ([5]; 10^-7 M): 38%

**Q.** With `O=C1NC(=O)C2(CCOc3ccc(F)cc32)N1` (single isomer, unassigned) [sodium salt of d-6-fluoro-spiro-[chroman-4,4'-imidazolidine]-2',5'-dione] as the molecule, how does the “solubility in water (in words)” value [6] read?
**A.** freely soluble in water

**Q.** What does the source list for `O=C1NC(=O)C2(CCOc3ccc(F)cc32)N1` (single isomer, unassigned) [1-Isomer of Ex. I, l-6-fluoro-spiro-[chroman-4,4'-imidazolidine]-2',5'-dione]?
**A.** Percent Inhibition (%) of sorbitol accumulation in the sciatic nerve [4, 8]: 19%; Percent Inhibition (%) of sorbitol accumulation in the sciatic nerve [4, 10]: 6%; Percent Inhibition (%) of sorbitol accumulation in the sciatic nerve ([4]; 5.0 mg./kg. orally at 4, 8 and 24 hours after streptozotocin): 22%; Percent Inhibition (%) of aldose reductase enzyme activity ([5]; 10^-4 M): 88%; Percent Inhibition (%) of aldose reductase enzyme activity ([5]; 10^-5 M): 63%; Percent Inhibition (%) of aldose reductase enzyme activity ([5]; 10^-6 M): 23%; Percent Inhibition (%) of aldose reductase enzyme activity ([5]; 10^-7 M): -4%

**Q.** With `O=C1NC(=O)C2(CCSc3ccc(F)cc32)N1` (single isomer, unassigned) [1-Isomer of Ex. II, l-6'-fluoro-spiro-[imidazolidine-4,4'-thiochroman]-2,5-dione] as the molecule, how does the “Percent Inhibition (%) of aldose reductase enzyme activity” value ([5]; 10^-4 M) read?
**A.** 87%

**Q.** And the “Percent Inhibition (%) of aldose reductase enzyme activity” value ([5]; 10^-5 M)?
**A.** 65%

**Q.** What about the “Percent Inhibition (%) of aldose reductase enzyme activity” value ([5]; 10^-6 M) of the same molecule?
**A.** 11%

**Q.** And the “Percent Inhibition (%) of aldose reductase enzyme activity” value ([5]; 10^-7 M)?
**A.** 10%

**Q.** For `O=C1NC(=O)C2(CCSc3ccc(F)cc32)N1` (single isomer, unassigned) [d-Isomer of Ex. II, d-6'-fluoro-spiro-[imidazolidine-4,4'-thiochroman]-2,5-dione], which “lowering sorbitol levels in the sciatic nerve and lens (in words)” value [2] is on record?
**A.** equally effective in lowering sorbitol levels in the sciatic nerve and lens of diabetic subjects

**Q.** And the “lowering galactitol levels in the lens (in words)” value [3]?
**A.** to a very significantly high degree

**Q.** And the “Percent Inhibition (%) … in the sciatic nerve” value [4, 8]?
**A.** 55%

**Q.** And the “aldose reductase inhibitory activity (in words)” value [5]?
**A.** extremely potent

**Q.** What about the inhibition at 100 µM ([5]; 10^-4 M) of the same molecule?
**A.** 89%

**Q.** What about the inhibition at 10 µM ([5]; 10^-5 M) of the same molecule?
**A.** 80%

**Q.** What about the “Percent Inhibition (%) of aldose reductase enzyme activity” value ([5]; 10^-6 M) of the same molecule?
**A.** 76%

**Q.** And the “Percent Inhibition (%) of aldose reductase enzyme activity” value ([5]; 10^-7 M)?
**A.** 74%
